Tests used:
[1] = tested on: Ig fraction of the antiserum raised to immunogen II (hapten A-BTG); assay: competitive ELISA microtiter plate assay, antiserum to immunogen II with conjugate I (hapten A-HRP); assay type: binding, sheep; details: for % CR (percentage cross-reactivity based on specificity to leucomalachite green) / IC50 (standard concentration which produces 50% B/B0): Conjugate I (hapten A-HRP); for IC50 (standard concentration which produces 50% B/B0): 37° C. 2 hours; for % B/B0 / A450: Conjugate I
Protocol: (§1) An aqueous solution of immunogen II was formulated with Freund's Complete Adjuvant (FCA) to form an emulsion consisting of 2 mg/ml immunogen in 50% (v/v) FCA. Three sheep were immunised with this emulsion (1° immunisation), 0.25 ml being intramuscularly injected at each of four sites in the rump of each animal. Subsequent immunizations (boosts) contained 1 mg/ml immunogen. All boosts were emulsified in 50% (v/v) Freund's Incomplete Adjuvant (FIA) and were administered in the same manner as the 1° immunisation, at monthly intervals for 1 year. Blood sampling took place 7 to 14 days after each boost. Each sample was processed to produce antiserum, which was further purified by caprylic acid and ammonium sulfate precipitation to yield an immunoglobulin (Ig) fraction. The Ig fraction was evaluated by competitive ELISA microtiter plate assay, as described in Example 12 below.
The wells of an enhanced binding 96 well polystyrene microtiter plate were coated with the Ig fraction of the antiserum raised to immunogen II (hapten A-BTG) (Example 8), diluted in 10 mM Tris, pH8.5 (125 μl/well). The appropriate antibody coating dilution was determined using standard ELISA checkerboard techniques. The plate was incubated for 2 hours at 37° C., washed 4 times with Tris buffered saline containing Tween 20 (TBST) and tapped dry. Standard solutions of leucomalachite green and malachite green were prepared in TBST at 0, 5, 10, 50, 100, 250, 500 and 1000 ng/ml, and 50 μl of each was added to the appropriate wells (FIG. 8).
75 μl of conjugate I (hapten A-HRP) (Example 9), diluted in Tris buffer (pH 7.2) containing EDTA, D-mannitol, sucrose, thimerosal and BSA, was added to each of the wells, as shown in FIG. 8. The appropriate dilution of conjugate was also determined using standard ELISA checkerboard techniques. The plate was incubated at 37° C. for 2 hours. Excess unbound conjugate was removed by washing 6 times over a 10 minute period with TBST. 125 μl of tetramethylbenzidine (TMB) substrate solution was added to each well of the plate that was then incubated for 15 to 20 minutes in the dark at room temperature. The reaction was terminated by addition of 125 μl 0.2M H2SO4 to each well. The absorbance was then measured at 450 nm using a microtiter plate reader.

[2] = tested on: Ig fraction of the antiserum raised to immunogen II (hapten A-BTG); assay: competitive ELISA microtiter plate assay, antiserum to immunogen II with Conjugate II (hapten C-HRP); assay type: binding, sheep; details: for % CR (percentage cross-reactivity based on specificity to leucomalachite green) / IC50 (standard concentration which produces 50% B/B0): Conjugate II (hapten C-HRP); for IC50 (standard concentration which produces 50% B/B0): 25° C. 1 hour; for % B/B0 / A450: Conjugate II
Protocol: as §1
The wells of an enhanced binding 96 well polystyrene microtiter plate were coated with the Ig fraction of the antiserum raised to immunogen II (hapten A-BTG) (Example 8), diluted in 10 mM Tris, pH8.5 (125 μl/well). The appropriate antibody coating dilution was determined using standard ELISA checkerboard techniques. The plate was incubated for 2 hours at 37° C., washed 4 times with Tris buffered saline containing Tween 20 (TBST) and tapped dry. […]
75 μl of conjugate C (hapten C-HRP) (Example 10), diluted in Tris buffer (pH 7.2) containing EDTA, D-mannitol, sucrose, thimerosal and BSA, was added to each of the wells, as shown in FIG. 8. The appropriate dilution of conjugate was also determined using standard ELISA checkerboard techniques.
The plate was incubated at 25° C. for 1 hour. Excess unbound conjugate was removed by washing 6 times over a 10-15 minute period with TBST.
125 μl of tetramethylbenzidine (TMB) substrate solution was added to each well of the plate that was then incubated for 20 minutes in the dark at room temperature. The reaction was terminated by addition of 100 ul 0.2 M H2SO4 to each well. The absorbance was then measured at 450 nm using a microtiter plate reader.

[3] = tested on: Bioo Kit antibodies; details: information provided by Bioo Scientific; kit designed to detect malachite green only; cited from earlier work
[4] = standard concentration 10 ng/ml
[5] = standard concentration 50 ng/ml
[6] = standard concentration 100 ng/ml
[7] = standard concentration 250 ng/ml
[8] = standard concentration 500 ng/ml
[9] = standard concentration 1000 ng/ml
[10] = standard concentration 0.5 ng/ml

Compound	% CR (percentage cross-reactivity based on specificity to leucomalachite green) [1]	IC50 (standard concentration which produces 50% B/B0) [1]	% B/B0 ([1]; standard concentration 5 ng/ml)	A450 ([1]; standard concentration 5 ng/ml)	% B/B0 [1, 4]	A450 [1, 4]	% B/B0 [1, 5]	A450 [1, 5]	% B/B0 [1, 6]	A450 [1, 6]	% B/B0 [1, 7]	A450 [1, 7]	% B/B0 [1, 8]	A450 [1, 8]	% B/B0 [1, 9]	A450 [1, 9]	% CR (percentage cross-reactivity based on specificity to leucomalachite green) [2]	IC50 (standard concentration which produces 50% B/B0) [2]	% B/B0 [2, 10]	A450 [2, 10]	also measured
CN(C)c1ccc(C(c2ccccc2)c2ccc(N(C)C)cc2)cc1 [Leucomalachite Green, leucomalachite green]	100%	0.02733 µg/mL	76.0%	1.378	67.5%	1.225	42.0%	0.762	30.2%	0.547	20.2%	0.366	13.6%	0.247	9.8%	0.178	100%	0.00374 µg/mL	90%	1.550	% B/B0 ([2]; standard concentration 1 ng/ml): 77%; A450 ([2]; standard concentration 1 ng/ml): 1.323; % B/B0 ([2]; standard concentration 5 ng/ml): 45%; A450 ([2]; standard concentration 5 ng/ml): 0.772; % B/B0 [2, 4]: 31%; A450 [2, 4]: 0.538; % B/B0 [2, 5]: 11%; A450 [2, 5]: 0.184; cross-reactivity [3]: 1%
CN(C)c1ccc(C(=C2C=CC(=[N+](C)C)C=C2)c2ccccc2)cc1 [Malachite Green, malachite green]	26.43%	0.10339 µg/mL	85.2%	1.440	82.3%	1.392	63.6%	1.075	51.4%	0.869	39.3%	0.664	30.8%	0.520	24.6%	0.416	26.8%	0.013962 µg/mL	95%	1.611	% B/B0 ([2]; standard concentration 1 ng/ml): 89%; A450 ([2]; standard concentration 1 ng/ml): 1.504; % B/B0 ([2]; standard concentration 5 ng/ml): 67%; A450 ([2]; standard concentration 5 ng/ml): 1.137; % B/B0 [2, 4]: 57%; A450 [2, 4]: 0.967; % B/B0 [2, 5]: 29%; A450 [2, 5]: 0.497; % B/B0 [2, 6]: 20%; A450 [2, 6]: 0.342; % B/B0 [2, 7]: 13%; A450 [2, 7]: 0.227; % B/B0 [2, 8]: 11%; A450 [2, 8]: 0.184; % B/B0 [2, 9]: 7%; A450 [2, 9]: 0.113

— patent US20070072242A1, “Immunoassay method and kit to leucomalachite green and malachite green” (Randox Laboratories Limited, priority 2005, published 2007)
